Ends that are not written are not given here.

One substance from patent US10463709B2, “Short synthetic peptide for treating diseases and/or conditions related to angiogenesis” (MacKay Memorial Hospital, priority 2015, dated 2019) can be followed below.

Experiment [1] concerns HUVECs. Kind of experiment: VEGF-induced HUVEC proliferation assay. To be noted: VEGF (10 ng/mL) + 25 μM peptide; vs untreated HUVECs. Format: cell-based.
Experiment [2] has as its system STZ-induced diabetic mice. Kind of experiment: Vascular abnormalities in the retina of diabetic mice. Format: in vivo. Put shortly:
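Diabetes induced by single i.p. STZ 150 mg/kg; mice with non-fasting glucose >500 mg/dl after 1 week used. Peptide 10 mg/kg or DMSO vehicle i.p. twice daily for 24 h, then BSA-FITC 100 mg/kg i.p. for 30 min; retinal lesions counted on flat mounts (average lesions/retina), FITC-BSA leakage by fluorometry (ex 488/em 535 nm) normalized to non-injected control retina.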

Experiment [3] concerns laser-induced wet AMD mouse model. Put plainly: Laser induced choroidal neovascularization (CNV), mouse. Format: in vivo, C57BL/6 mice. The conditions noted are these: 10 mg/kg intraperitoneal twice a day for 10 days; vs vehicle. As to the method:
The 8-week-old female C57BL/6 mice were anaesthetized by injecting intraperitoneally a mixture of zoletil (6 mg/kg) and xylazine (3 mg/kg). The retina was viewed through a slit lamp microscope, and the optic nerve head was placed in the center of the microscope field. Both eyes received 3 or 4 laser burns around the optic nerve head using the diode laser (lesion diameter 50 μm; duration 100 ms; energy 250 mW). The formation of a blister indicates rupture of the Bruch's membrane after laser application. DMSO Vehicle or 7-mer (10 mg/kg; n≥10 per peptide) were administered by intraperitoneal injections twice a day for 10 days. Fluorescein fundus images were taken about 5 minutes after intraperitoneal injection of 0.1 mL of 100 mg/ml Fluorescein (10% w/v). During this period, the size of fluorescein leakage spots was relatively stable. The leakage of each CNV lesion was graded by a retina specialist according to the method described by Sheets et al. (Molecular Vision 2010; 16:320-329). […]
Wet type age-related macular degeneration (AMD) is characterized by extensive growth of new vessels in retina. […] Newly formed microvessels with clear fluorescein leakage in retina were assessed by fundus fluorescein angiography 10 days post laser treatment, and results are provided in the photographs of FIG. 13.

Experiment [4] relates to rat model of laser-induced wet AMD. Kind of experiment: Laser-induced wet AMD, rat model. It is filed as in vivo. To be noted: fluorescein angiography day 14; vs PBS vehicle. The source says:
Further, the effect of 7-mer or 7-mer DD on rat model of laser-induced wet AMD was also investigated. Fluorescein angiography images were obtained on day 14 after laser burn, and the images were subsequently scored. Results are depicted in FIG. 14.

Take “NH2-Asp-Leu-Tyr-Arg-Val-Arg-Ser-COOH (DLYRVRS; not fully specified (N-terminus, C-terminus); printed as NH2-Asp-Leu-Tyr-Arg-Val-Arg-Ser-COOH) [7-mer]”: the “Cell number (Fold)” value in experiment [1] is 0.95 ± 0.050 Fold. In addition, in experiment [2], the “extravasation of FITC-BSA” value is given as “may significantly prevent”. Further, in experiment [2] (10 mg/kg intraperitoneal twice a day, 24 h), the “number of vascular lesions in retina” value is recorded as 1.8±0.54. Further, in experiment [2] (intraperitoneal), the “hemorrhage in the retinal parenchyma” value is recorded as “successfully blocked”. Moreover, the “Fluorescence Intensity (Fold)” value in experiment [2] (leaked FITC-BSA in entire retina, vs vehicle) stood at 0.29 ± 0.076 Fold. The “CNV lesion grades, severity distribution” value in experiment [3] is listed as “lower severity distribution of CNV”. The “lesions caused by the laser burn” value in experiment [4] was “significantly ameliorated”.
